From the METLIN SMRT retention time set (Domingo-Almenara et al. 2019)

Assay: gradient 5% acetonitrile 3 min, to 50% in 2 min, to 85% in 15 min, held 3 min, 100 µL/min
Conditions: column: Zorbax Extend-C18 2.1 x 50 mm; eluents: water / acetonitrile, 0.1% formic acid
Summary of the method: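 Standards, all pure, were combined into mixtures of ~100 molecules and run at 100 μL/min on a Zorbax Extend-C18 column (2.1 × 50 mm, 1.8 μm) with water and acetonitrile, each containing 0.1% formic acid. A coupled quadrupole time-of-flight mass spectrometer operated in positive and negative ionization mode. Retention time values come from computationally picked adduct peaks, each inspected manually.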

| SMILES | RP-LC retention time [s] |
| --- | --- |
| CCCN(CC1CCOC1)C(=O)Nc1cccc(Cl)c1 (stereo not drawn) | 827 |
| CCS(=O)(=O)Nc1cc(-c2nnc(C(C)C)o2)sc1C | 863 |
| CS(=O)(=O)N1CCOc2ccc(CCC(=O)NC3CCS(=O)(=O)C3)cc2C1 (stereo not drawn) | 644 |
| COc1ccccc1NC(=O)Cn1c2ccccc2n2c(=O)cc(-c3ccc(F)cc3)nc12 | 1010 |
| CC(C)NC(=O)CN1c2ccc(F)cc2-c2ccccc2S1(=O)=O | 831 |
| O=C(NCc1ccc(F)cc1)Nc1cccn2ncnc12 | 718 |
| CC(C)OCCCNC(=O)c1ccc2c(c1)NC(=O)C(C(C)C)N2 (stereo not drawn) | 688 |
| CC(NS(=O)(=O)c1ccc2c(c1)CCN2C(=O)N1CCCC1)C(=O)N1CCCCC1 (stereo not drawn) | 720 |
| N#Cc1c(NC(=O)c2cccnc2)sc2c1CCCCC2 | 834 |
| CCOc1ccc(NC(=O)c2c(O)c3cccnc3n(-c3ccc(F)cc3)c2=O)cc1 | 1280 |
| Cc1ccccc1CNC(=O)c1csc(-c2cn(C)c3ncccc23)n1 | 1120 |
| O=C(COc1ccccc1-c1nnc(-c2ccccc2)o1)NCc1ccc2c(c1)OCO2 | 1030 |
| Cc1cc(C)cc(-c2nnc(Cc3nc(-c4ccc5c(c4)OCO5)no3)o2)c1 | 1070 |
| COc1ccc(CNC(=O)Nc2ccc(CC(=O)NCC(F)(F)F)cc2)cc1 | 706 |
| CCn1cc(-c2nc(CC(=O)Nc3ccccc3F)cs2)c2cccnc21 | 874 |
| NS(=O)(=O)c1ccc(CCNCc2ccc(-c3cc(Cl)cc(Cl)c3)o2)cc1 | 800 |
| CC(C)n1nc(CNC(=O)c2ccco2)c2ccccc21 | 788 |
| Cc1oc2c(c1C(=O)NCc1ccc(F)c(F)c1)C1=NC(C)(C)CN1C=N2 | 666 |
| Brc1ccc(-c2csc(Cc3nc(-c4ccc5c(c4)OCO5)no3)n2)cc1 | 1300 |
| COc1cc(OC)cc(-c2nnc(Cc3nc(-c4ccccc4F)no3)o2)c1 | 907 |

| SMILES | RP-LC retention time [s] |
| --- | --- |
| COc1ccc(-c2cc3nn(CC(=O)Nc4ccc(F)cc4Cl)c(=O)n3c(C)n2)cc1 | 970 |
| CN1CCC=C(C(=O)N2c3ccccc3Sc3ccc(Cl)cc32)C1 | 762 |
| Cc1cc(C)cc(NC(=O)C2CC(=O)N(CCc3c[nH]c4ccc(F)cc34)C2)c1 (stereo not drawn) | 889 |
| O=C(CCn1cnc2cc(-c3noc(-c4cccc(F)c4)n3)ccc21)N1CCCC1 | 765 |
| COc1cccc(C2Cn3nnc(-c4nc(-c5ccc(OC(C)C)cc5)no4)c3CO2)c1 (stereo not drawn) | 1250 |
| COCCn1cc(CCNC(=O)Nc2ccc(C)c(F)c2)c2cccnc21 | 772 |
| COC(=O)C1C(=O)C2=C(CC1C)NC(=O)CC2c1cccc(Cl)c1 (stereo not drawn) | 773 |
| Cc1ccc(-c2noc(C3CCCN3C(=O)CNC(=O)C(c3ccccc3)c3ccccc3)n2)cc1 (stereo not drawn) | 1100 |
| CCOc1ccc(C(O)Cn2ccn3nc(-c4ccccc4C)cc3c2=O)cc1 (stereo not drawn) | 985 |
| COc1ccc(C2Cn3nnc(-c4nc(C(C)C)no4)c3CO2)cc1 (stereo not drawn) | 936 |
| CCOC(=O)Cc1sc(Nc2nc(C)cc(C)n2)nc1-c1ccccc1 | 989 |
| CC(C)NC(=O)N1CC(Oc2cccc(-c3nc(-c4ccccc4)no3)c2)C1 | 1010 |
| COC(=O)c1ccc(NC(=O)CSc2nnc(-c3cccs3)o2)cc1 | 648 |
| Cc1nc(C(=O)NCC(=O)O)c(O)c2ccc(Oc3ccccc3)cc12 | 793 |
| Cc1ccc(N2CCC(NC(=O)c3ccc(C#N)cc3)C2=O)cc1C (stereo not drawn) | 854 |
| COc1cc(/C=C2\SC(=O)N(CC(=O)Nc3nccs3)C2=O)cc(OC)c1OC | 777 |
| COC(=O)c1cc2ccsc2n1CC(=O)Nc1ccc(F)cc1F | 949 |
| COC(=O)c1ccc(CSc2nccc3c(OC)cccc23)o1 | 1100 |
| CC1Cc2cc(-c3cc(CNC(=O)c4ccccc4C(F)(F)F)no3)ccc2O1 (stereo not drawn) | 875 |
| CN(C)CCCNC(=O)C1CCN(c2nc3ccc(-c4cccc(F)c4)nc3s2)CC1 | 691 |

| SMILES | RP-LC retention time [s] |
| --- | --- |
| Cc1ccc2oc(C(=O)Nc3ccnn3Cc3ccccc3)cc(=O)c2c1 | 835 |
| Cc1cc(N2CCN(C)CC2)nc(N2CCN(C(=O)c3ccc(C(C)(C)C)cc3)CC2)n1 | 586 |
| Fc1cccc(-c2noc(-c3cc(N4CCOCC4)nc4ccccc34)n2)c1 | 1240 |
| O=C(c1ccc(Cl)cc1)N1CCN(c2nc(CN3CCCCC3)cs2)CC1 | 808 |
| Cc1nc(-c2ccncc2)nc2c1CCC(=O)N2Cc1ccco1 | 666 |
| CCOC(=O)c1ccc(NC(=O)Cn2c(C)nc3c(sc4nc(-c5ccccc5)ccc43)c2=O)cc1 | 1100 |
| Cc1nc([C@@H]2CN(C(=O)CCc3c(C)noc3C)C[C@H]2C(N)=O)n[nH]1 | 569 |
| Cc1cc(C)cc(C(=O)N2C[C@@H]3C[C@H](NC(=O)c4cccnc4)[C@H]2C3)c1 | 658 |
| COc1ccc(C)cc1NC(=O)N1CCCC1c1c(C)noc1C (stereo not drawn) | 840 |
| CCOC(=O)N1CCN(c2ncc3c(n2)CC(C)CC3=O)CC1 (stereo not drawn) | 842 |
| Cc1cc(C)c(C)c(S(=O)(=O)NCCc2cn(CC(C)C)c3ncccc23)c1C | 1120 |
| O=C(Nc1ccc(OC(F)(F)F)cc1)C(=O)Nc1ccccc1[N+](=O)[O-] | 1090 |
| O=C(Cn1cccc1-c1nnc(C2CCC2)o1)Nc1ccc(F)c(F)c1 | 945 |
| C=CCN(Cc1nc(-c2ccc(C)cc2)no1)C(=O)Nc1ccccc1OC | 1130 |
| CCc1nccn1Cc1nc(-c2ccc(C)cc2)no1 | 646 |
| Cc1ccc(-c2nnc(Cc3nc(-c4ccc(F)cc4)no3)o2)cc1C | 1120 |
| COc1ccc(NC(=O)CCc2c(C)nn(-c3cc(N4CCCC4)ncn3)c2C)c(OC)c1 | 801 |
| Cc1ccn2c(NC(=O)c3ccc(Br)cc3)c(-c3ccccc3)nc2c1 | 709 |
| COc1cccc(-c2ccc(=O)n(Cc3nc(-c4ccccc4Cl)no3)n2)c1 | 931 |

Further lines, results first:

| RP-LC retention time [s] | SMILES |
| --- | --- |
| 593 | Cc1cc(N2CCCC2)n2nc(CN(C)Cc3ccccc3)nc2n1 |
| 815 | O=C(NC1CCCCCC1)C1CCCN(c2ncnc3c2oc2ccccc23)C1 (stereo not drawn) |
| 875 | COC(=O)c1cc(S(=O)(=O)N2CCCC2C(=O)Nc2ccc(F)cc2F)cn1C (stereo not drawn) |
| 601 | c1ccc(Cn2cnnc2C2CCCCN2Cc2ccoc2)cc1 (stereo not drawn) |
| 768 | COc1cccc(NC(=O)Cn2nc3nc(N4CCCC(C)C4)ccn3c2=O)c1 (stereo not drawn) |
| 612 | NS(=O)(=O)c1ccc(CNC(=O)C2CCN(C(=O)NCc3cccs3)CC2)cc1 |
| 844 | O=C(NC1CCN(c2ccccc2)C1=O)c1ccc(Br)cc1 (stereo not drawn) |
| 624 | CN(CCNC(=O)C1CCCN(c2nn3c(=O)c4c(nc3s2)CCCC4)C1)Cc1ccccc1 (stereo not drawn) |
| 1040 | O=S1(=O)C[C@H](N2CCN(c3cccc(Cl)c3)CC2)[C@@H](S(=O)(=O)c2ccc(F)cc2)C1 |
| 1160 | Cc1ccc(N2CC(c3nc(-c4ccc(N(C)C)cc4)no3)CC2=O)cc1Cl (stereo not drawn) |
| 844 | Cc1ccccc1-n1ccn(Cc2nc(-c3ccc(F)cc3)no2)c(=O)c1=O |
| 597 | Cc1cc2nc(C(=O)N3CCN(c4ccccn4)CC3)c(=O)n(C)c2cc1C |
| 585 | CCNc1cc(N2CCC(CCC(=O)NCc3ccccc3Cl)CC2)ncn1 |
| 994 | COc1ccc(Cl)cc1S(=O)(=O)N1CCC(C(=O)NCCC2=CCCCC2)CC1 |
| 662 | COc1ccccc1N1CCN(CC2CN3C(=O)N(C)c4ccccc4C3=N2)CC1 (stereo not drawn) |
| 651 | O=C(CC1CCCN(c2cnn(CC3CC3)c(=O)c2)C1)NC1CC1 (stereo not drawn) |
| 706 | Cc1ccccc1S(=O)(=O)N1CCC(n2cnnc2C2CC2)CC1 |
| 606 | Cc1ccc(C(=O)NC2CCN(c3ncnc4c3CCC4)C2)s1 (stereo not drawn) |
| 1160 | COc1ccc(-c2ncc3c(n2)CCN(S(=O)(=O)c2ccc4c(c2)CCC4)C3)cc1 |
| 594 | CCC(C(=O)NCCCN1CCN(CC)CC1)n1c2ccccc2c2cnn(C)c(=O)c21 (stereo not drawn) |
| 930 | Cc1ccc2c(c1)N(S(C)(=O)=O)CCC(C(=O)Nc1ccc(F)cc1)O2 (stereo not drawn) |
| 973 | O=c1n(Cc2ccccc2)nc2c(S(=O)(=O)N3CCN(c4ccc(F)cc4)CC3)cccn12 |
| 834 | Cc1ccc(-n2c(C)c(C)c3c(=O)n(CC(=O)NC4CCCC4)cnc32)cc1 |
| 648 | O=C1CCCC2=C1C(c1ccco1)N(C(=O)CCC(=O)N1CCOCC1)c1ccccc1N2 (stereo not drawn) |
| 927 | Cc1csc(-c2cc(S(=O)(=O)NC3CCCCC3)cn2CC(=O)N2CCCC2)n1 |
| 787 | CC1CCN(c2ccc(-c3noc(CN4CCN(c5ccccc5)CC4)n3)cn2)CC1 |
| 1120 | Cn1nccc1-c1cccc(-c2noc(C3CCN(S(=O)(=O)c4ccc(Cl)cc4)CC3)n2)c1 |
| 881 | O=C(NCc1ccccc1Cl)C1c2ccccc2CCN1C(=O)C1CC1 (stereo not drawn) |
| 966 | CCOC(=O)c1cc(S(=O)(=O)N2CCCC2C(=O)NC2CCC(C)CC2)cn1C (stereo not drawn) |
